Measurements taken from patent publication US10363239B2, “Method for inhibiting growth of cancer cells” (Pain Therapeutics, Inc., priority 2013, dated 2019).
Where two headings read alike, the source gives them in different places.

Key:
[1] = target: FLNA pentapeptide of SEQ ID NO: 1 (Bn-VAKGL) (Homo sapiens, UniProt P21333); assay: FITC-NLX-based FLNA screening assay (inhibition of FITC-naloxone binding to Bn-VAKGL on streptavidin plates); conditions: 10 nM FITC-NLX
mu opiate receptor (MOR) = assay: MOR agonist activity using [35S]GTPγS binding assay in striatal membranes; assay type: biochemical; conditions: for MOR agonist activity ([35S]GTPγS binding), FLNA-Binding Compound as Agonist 1 μM + BFNA: 1 μM compound + 1 μM β-funaltrexamine
Experimental: To assess the mu opiate receptor (MOR) agonist activity of positive compounds from the FLNA screening, compounds were tested in a [^35S]GTPγS binding assay using striatal membranes. […] This assay measures a functional consequence of receptor occupancy at one of the earliest receptor-mediated events. The assay permits traditional pharmacological parameters of potency, efficacy and antagonist affinity, with the advantage that agonist measures are not subjected to amplification or other modulation that may occur when analyzing parameters further downstream of the receptor.
Thus, striatal tissue was homogenized in 10 volumes of ice cold 25 mM HEPES buffer, pH 7.4, which contained 1 mM EGTA, 100 mM sucrose, 50 μg/ml leupeptin, 0.04 mM PMSF, 2 μg/ml soybean trypsin inhibitor and 0.2% 2-mercaptoethanol. The homogenates were centrifuged at 800×g for 5 minutes and the supernatants were centrifuged at 49,000×g for 20 minutes. The resulting pellets were suspended in 10 volume of reaction buffer, which contained 25 mM HEPES, pH 7.5, 100 mM NaCl, 50 μg/ml leupeptin, 2 μg/ml soybean trypsin inhibitor, 0.04 mM PMSF and 0.02% […].
The resultant striatal membrane preparation (200 μg) was admixed and maintained (incubated) at 30° C. for 5 minutes in reaction buffer as above that additionally contained 1 mM MgCl2 and 0.5 nM [^35S]GTPγS (0.1 μCi/assay, PerkinElmer Life and Analytical Sciences) in a total volume of 250 μl and continued for 5 minutes in the absence or presence of 0.1-10 μM of an assayed compound of interest. The reaction was terminated by dilution with 750 μl of ice-cold reaction buffer that contained 20 mM MgCl2 and 1 mM EGTA and immediate centrifugation at 16,000×g for 5 minutes.
The resulting pellet was solubilized by sonicating for 10 seconds in 0.5 ml of immunoprecipitation buffer containing 0.5% digitonin, 0.2% sodium cholate and 0.5% NP-40. Normal rabbit serum (1 μl) was added to 1 ml of lysate and incubated at 25° C. for 30 minutes. Nonspecific immune complexes were removed by incubation with 25 μl of protein A/G-conjugated agarose beads at 25° C. for 30 minutes followed by centrifugation at 5,000×g at 4° C. for 5 minutes. The supernatant was divided and separately incubated at 25° C. for 30 minutes with antibodies raised against Gαo proteins (1:1,000 dilutions).
The immunocomplexes so formed were collected by incubation at 25° C. for 30 minutes with 40 μl of agarose-conjugated protein A/G beads and centrifugation at 5,000×g at 4° C. for 5 minutes. The pellet was washed and suspended in buffer containing 50 mM Tris-HCl, pH 8.0, and 1% NP-40. The radioactivity in the suspension was determined by liquid scintillation spectrometry.

[2] = FLNA-binding compound 0.01 μM, read-out: Percent Binding Inhibition
[3] = FLNA-binding compound 0.1 μM, read-out: Percent Binding Inhibition
[4] = FLNA-binding compound 1 μM, read-out: Percent Binding Inhibition
[5] = 0.1 μM compound relative to DAMGO
[6] = 1 μM compound + BFNA relative to DAMGO + BFNA
[7] = 1 μM compound relative to DAMGO
[8] = Series C-2, 0.1 μM compound, relative to DAMGO
[9] = Series C-2, 0.1 μM compound, [35S]GTPγS binding to Gαo, striatal membranes
[10] = Series C-2, 1 μM compound + 1 μM β-FNA
[11] = Series C-2, 1 μM compound + β-FNA, relative to DAMGO + BFNA
[12] = Series C-2, 1 μM compound, relative to DAMGO
[13] = Series C-2, 1 μM compound, [35S]GTPγS binding to Gαo, striatal membranes
[14] = read-out: Percent Binding Inhibition, FLNA-binding compound 0.01 μM
[15] = read-out: Percent Binding Inhibition, FLNA-binding compound 0.1 μM
[16] = read-out: Percent Binding Inhibition, FLNA-binding compound 1 μM

| SMILES | inhibition at 0.01 µM [1, 2] | inhibition at 0.1 µM [1, 3] | inhibition at 1 µM [1, 4] | MOR agonist activity ([35S]GTPγS binding), FLNA-Binding Compound as Agonist 0.1 μM (mu opiate receptor (MOR); 0.1 μM compound) | % DAMGO (0.1 μM) (mu opiate receptor (MOR); [5]) | MOR agonist activity ([35S]GTPγS binding), FLNA-Binding Compound as Agonist 1 μM (mu opiate receptor (MOR); 1 μM compound) | MOR agonist activity ([35S]GTPγS binding), FLNA-Binding Compound as Agonist 1 μM + BFNA (mu opiate receptor (MOR)) | % DAMGO + BFNA (mu opiate receptor (MOR); [6]) | % DAMGO (1 μM) (mu opiate receptor (MOR); [7]) | other results |
| --- | --- | --- | --- | --- | --- | --- | --- | --- | --- | --- |
| COc1ccc(OCC(O)CN2CCOc3ccccc32)cc1 (stereo not drawn) [Compound A0076] | 36.1% | 40% | 44.9% | 79.8% | 46.4% | 172.6% | 41.2% | 119.4% | 78.6% |  |
| CCCCc1ccc(S(=O)(=O)N2CCC3(CC2)OCCN3S(=O)(=O)c2ccc(CCCC)cc2)cc1 [Compound C0030] | 37.4% | 45.4% | 56% |  |  |  |  |  |  | % DAMGO (0.1 μM) (mu opiate receptor (MOR); Series C-1, 0.1 μM compound, relative to DAMGO): 96.0%; Concentration of FLNA-Binding Compound as Agonist 0.1 μM (mu opiate receptor (MOR); Series C-1, 0.1 μM compound, [35S]GTPγS binding to Gαo, striatal membranes): 150.3%; Concentration of FLNA-Binding Compound as Agonist 1 μM + BFNA (mu opiate receptor (MOR); Series C-1, 1 μM compound + 1 μM β-FNA): 95.0%; % DAMGO + BFNA (mu opiate receptor (MOR); Series C-1, 1 μM compound + β-FNA, relative to DAMGO + BFNA): 291.4%; % DAMGO (1 μM) (mu opiate receptor (MOR); Series C-1, 1 μM compound, relative to DAMGO): 98.0%; Concentration of FLNA-Binding Compound as Agonist 1 μM (mu opiate receptor (MOR); Series C-1, 1 μM compound, [35S]GTPγS binding to Gαo, striatal membranes): 226.8% |
| CC(=O)c1ccc(S(=O)(=O)N2CCOC23CCNCC3)cc1 [Compound C0046] | 30.8% | 35.7% | 42.2% |  |  |  |  |  |  | % DAMGO (0.1 μM) (mu opiate receptor (MOR); [8]): 197.4%; MOR agonist activity, percent [35S]GTPγS binding at the stated compound concentration (mu opiate receptor (MOR); [9]): 286.2%; MOR agonist activity, percent [35S]GTPγS binding at the stated compound concentration (mu opiate receptor (MOR); [10]): 156.8%; % DAMGO + BFNA (mu opiate receptor (MOR); [11]): 356.4%; % DAMGO (1 μM) (mu opiate receptor (MOR); [12]): 211.5%; MOR agonist activity, percent [35S]GTPγS binding at the stated compound concentration (mu opiate receptor (MOR); [13]): 492.9% |
| O=C1CNC2(CCNCC2)N1Cc1ccccc1 [Compound C0114M] |  |  |  |  |  |  |  |  |  | inhibition at 0.01 µM [1, 14]: 57.1%; inhibition at 0.1 µM [1, 15]: 63.2%; inhibition at 1 µM [1, 16]: 66.7%; % DAMGO (0.1 μM) (mu opiate receptor (MOR); [8]): 77.6%; MOR agonist activity, percent [35S]GTPγS binding at the stated compound concentration (mu opiate receptor (MOR); [9]): 114.0%; MOR agonist activity, percent [35S]GTPγS binding at the stated compound concentration (mu opiate receptor (MOR); [10]): 35.9%; % DAMGO + BFNA (mu opiate receptor (MOR); [11]): 91.3%; % DAMGO (1 μM) (mu opiate receptor (MOR); [12]): 71.4%; MOR agonist activity, percent [35S]GTPγS binding at the stated compound concentration (mu opiate receptor (MOR); [13]): 144.3% |
| CC(=O)c1ccc(OCC(O)CN2CC(C)OC(C)C2)cc1 (stereo not drawn) [Compound A0044] | 32.4% | 36.9% | 39.6% | 176.2% | 89.8% | 209.1% | 134.7% | 182.3% | 75.8% |  |
| CC1CN(CC(O)COc2ccccc2Br)CC(C)O1 (stereo not drawn) [Compound A0043] | 46.4% | 48.9% | 51.8% | 183.3% | 93.4% | 223.8% | 89.1% | 120.6% | 81.1% |  |
| COc1ccc(CC(=O)CC2c3c(cc4c(c3OC)OCO4)CC[N+]2(C)C)c(OC)c1 (stereo not drawn) [Compound B0029] |  |  |  |  |  |  |  |  |  | inhibition at 0.01 µM [1, 14]: 33.4%; inhibition at 0.1 µM [1, 15]: 42.9%; inhibition at 1 µM [1, 16]: 50.2%; % DAMGO (0.1 μM) (mu opiate receptor (MOR); Series B, 0.1 μM compound, relative to DAMGO): 89.4%; MOR agonist activity, percent [35S]GTPγS binding at the stated compound concentration (mu opiate receptor (MOR); Series B, 0.1 μM compound, [35S]GTPγS binding to Gαo, striatal membranes): 171.9%; MOR agonist activity, percent [35S]GTPγS binding at the stated compound concentration (mu opiate receptor (MOR); Series B, 1 μM compound + 1 μM β-FNA): 17.6%; % DAMGO + BFNA (mu opiate receptor (MOR); Series B, 1 μM compound + β-FNA, relative to DAMGO + BFNA): 40.1%; % DAMGO (1 μM) (mu opiate receptor (MOR); Series B, 1 μM compound, relative to DAMGO): 77.0%; MOR agonist activity, percent [35S]GTPγS binding at the stated compound concentration (mu opiate receptor (MOR); Series B, 1 μM compound, [35S]GTPγS binding to Gαo, striatal membranes): 210.3% |
